Experimental data taken from ChEMBL document CHEMBL3044671, “Synthesis and in vitro antimicrobial and anti-tubercular evaluation of some quinoline-based azitidinone and thiazolidinone analogues” (2013).
In brackets after ≈: the same amount, converted by molar mass.

Tests used:
Assay type in all cases: functional
Candida albicans [1] = experiment: Antimicrobial activity against Candida albicans MTCC 183 assessed as diameter of growth zone inhibition by agar streak dilution method
Aspergillus niger [2] = experiment: Antimicrobial activity against Aspergillus niger MTCC 282 assessed as diameter of growth zone inhibition by agar streak dilution method
Candida albicans [3] = experiment: Antimicrobial activity against Candida albicans MTCC 183 assessed as growth inhibition by agar streak dilution method
Staphylococcus aureus [4] = experiment: Antimicrobial activity against Staphylococcus aureus MTCC 96 assessed as diameter of growth zone inhibition by agar streak dilution method
[5] = system: Mycobacterium tuberculosis; experiment: Antitubercular activity against Mycobacterium tuberculosis H37Rv assessed as growth inhibition by BACTEC MGIT method
Escherichia coli [6] = experiment: Antimicrobial activity against Escherichia coli MTCC 739 assessed as growth inhibition by agar streak dilution method
Pseudomonas aeruginosa [7] = experiment: Antimicrobial activity against Pseudomonas aeruginosa MTCC 741 assessed as diameter of growth zone inhibition by agar streak dilution method
Bacillus subtilis [8] = experiment: Antimicrobial activity against Bacillus subtilis MTCC 430 assessed as growth inhibition by agar streak dilution method
Bacillus subtilis [9] = experiment: Antimicrobial activity against Bacillus subtilis MTCC 430 assessed as diameter of growth zone inhibition by agar streak dilution method
Aspergillus niger [10] = experiment: Antimicrobial activity against Aspergillus niger MTCC 282 assessed as growth inhibition by agar streak dilution method
Staphylococcus aureus [11] = experiment: Antimicrobial activity against Staphylococcus aureus MTCC 96 assessed as growth inhibition by agar streak dilution method
Escherichia coli [12] = experiment: Antimicrobial activity against Escherichia coli MTCC 739 assessed as diameter of growth zone inhibition by agar streak dilution method
Pseudomonas aeruginosa [13] = experiment: Antimicrobial activity against Pseudomonas aeruginosa MTCC 741 assessed as growth inhibition by agar streak dilution method

| Compound | diameter of the inhibition zone (DIZ) (Candida albicans [1]) [mm] | diameter of the inhibition zone (DIZ) (Aspergillus niger [2]) [mm] | MIC (Candida albicans [3]) [µg/mL] | diameter of the inhibition zone (DIZ) (Staphylococcus aureus [4]) [mm] | MIC [5] [µg/mL] | MIC (Escherichia coli [6]) [µg/mL] | diameter of the inhibition zone (DIZ) (Pseudomonas aeruginosa [7]) [mm] | MIC (Bacillus subtilis [8]) [µg/mL] | diameter of the inhibition zone (DIZ) (Bacillus subtilis [9]) [mm] | MIC (Aspergillus niger [10]) [µg/mL] | MIC (Staphylococcus aureus [11]) [µg/mL] | diameter of the inhibition zone (DIZ) (Escherichia coli [12]) [mm] | MIC (Pseudomonas aeruginosa [13]) [µg/mL] |
| --- | --- | --- | --- | --- | --- | --- | --- | --- | --- | --- | --- | --- | --- |
| O=C1C(Cl)C(c2cc3ccccc3nc2S)N1c1ccc(F)cc1 (stereo not given) | 24 | 25 | 25 (≈ 69.7 µM) | 26 | 62.5 (≈ 174 µM) | 12.5 (≈ 34.8 µM) | 23 | 6.25 (≈ 17.4 µM) | 25 | 12.5 (≈ 34.8 µM) | 6.25 (≈ 17.4 µM) | 24 | 25 (≈ 69.7 µM) |
| O=C1CSC(c2cc3ccccc3nc2S)N1c1ccc(F)cc1 (stereo not given) | 26 | 26 | 25 (≈ 70.1 µM) | 25 | 62.5 (≈ 175 µM) | 12.5 (≈ 35.1 µM) | 24 | 6.25 (≈ 17.5 µM) | 25 | 12.5 (≈ 35.1 µM) | 3.12 (≈ 8.75 µM) | 24 | 50 (≈ 140 µM) |
| O=C1C(Cl)C(c2cc3ccccc3nc2S)N1c1ccc([N+](=O)[O-])cc1 (stereo not given) | 20 | 24 | 100 (≈ 259 µM) | 24 | 250 (≈ 648 µM) | 12.5 (≈ 32.4 µM) | 24 | 25 (≈ 64.8 µM) | 24 | 12.5 (≈ 32.4 µM) | 50 (≈ 130 µM) | 25 | 12.5 (≈ 32.4 µM) |
| Cc1ccccc1N1C(=O)CSC1c1cc2ccccc2nc1S (stereo not given) | 17 | 16 | 100 (≈ 284 µM) | 20 | 500 (≈ 1420 µM) | 100 (≈ 284 µM) | 14 | 100 (≈ 284 µM) | 15 | 100 (≈ 284 µM) | 100 (≈ 284 µM) | 15 | 1000 (≈ 2840 µM) |
| NNC(=O)c1ccncc1 [ISONIAZID] |  |  |  |  | 0.2 (≈ 1.46 µM) |  |  |  |  |  |  |  |  |
| Cc1cccc(N2C(=O)C(Cl)C2c2cc3ccccc3nc2S)c1 (stereo not given) | 18 | 19 | 100 (≈ 282 µM) | 19 | 500 (≈ 1410 µM) | 100 (≈ 282 µM) | <10 | 100 (≈ 282 µM) | 18 | 100 (≈ 282 µM) | 100 (≈ 282 µM) | 17 | 100 (≈ 282 µM) |
| O=C1CSC(c2cc3ccccc3nc2S)N1c1ccc(Cl)cc1 (stereo not given) | 24 | 25 | 100 (≈ 268 µM) | 25 | 62.5 (≈ 168 µM) | 25 (≈ 67 µM) | 24 | 3.12 (≈ 8.37 µM) | 25 | 12.5 (≈ 33.5 µM) | 6.25 (≈ 16.8 µM) | 23 | 25 (≈ 67 µM) |
| Cc1cnc(N2C(=O)CSC2c2cc3ccccc3nc2S)s1 (stereo not given) | 24 | 23 | 62.5 (≈ 174 µM) | 24 | 62.5 (≈ 174 µM) | 12.5 (≈ 34.8 µM) | 23 | 25 (≈ 69.5 µM) | 23 | 62.5 (≈ 174 µM) | 12.5 (≈ 34.8 µM) | 24 | 62.5 (≈ 174 µM) |
| Cc1ccc(N2C(=O)C(Cl)C2c2cc3ccccc3nc2S)cc1 (stereo not given) | 15 | 17 | 100 (≈ 282 µM) | 18 | 250 (≈ 704 µM) | 100 (≈ 282 µM) | 18 | 100 (≈ 282 µM) | 19 | 100 (≈ 282 µM) | 100 (≈ 282 µM) | 18 | 100 (≈ 282 µM) |
| O=C1CSC(c2cc3ccccc3nc2S)N1c1ccc([N+](=O)[O-])cc1 (stereo not given) | 18 | 25 | 100 (≈ 261 µM) | 23 | 62.5 (≈ 163 µM) | 6.25 (≈ 16.3 µM) | 24 | 50 (≈ 130 µM) | 23 | 25 (≈ 65.2 µM) | 12.5 (≈ 32.6 µM) | 23 | 12.5 (≈ 32.6 µM) |
| Cc1cnc(N2C(=O)C(Cl)C2c2cc3ccccc3nc2S)s1 (stereo not given) | 24 | 22 | 62.5 (≈ 173 µM) | 24 | 125 (≈ 345 µM) | 12.5 (≈ 34.5 µM) | 22 | 6.25 (≈ 17.3 µM) | 22 | 50 (≈ 138 µM) | 25 (≈ 69.1 µM) | 24 | 100 (≈ 276 µM) |
| O=C1C(Cl)C(c2cc3ccccc3nc2S)N1c1ccccc1Cl (stereo not given) | 19 | 20 | 100 (≈ 266 µM) | 24 | 125 (≈ 333 µM) | 50 (≈ 133 µM) | 22 | 12.5 (≈ 33.3 µM) | 25 | 62.5 (≈ 167 µM) | 6.25 (≈ 16.7 µM) | 23 | 50 (≈ 133 µM) |
| Cc1ccccc1N1C(=O)C(Cl)C1c1cc2ccccc2nc1S (stereo not given) | 20 | 18 | 100 (≈ 282 µM) | 21 | 500 (≈ 1410 µM) | 100 (≈ 282 µM) | 19 | 100 (≈ 282 µM) | <10 | 100 (≈ 282 µM) | 62.5 (≈ 176 µM) | <10 | 100 (≈ 282 µM) |
| CC(=O)N1CCN(c2ccc(OCC3COC(Cn4ccnc4)(c4ccc(Cl)cc4Cl)O3)cc2)CC1 (stereo not given) [KETOCONAZOLE] | 33 | 30 | ≤ 1 |  |  |  |  |  |  | ≤ 3 |  |  |  |
| CO[C@H]1/C=C/O[C@@]2(C)Oc3c(C)c(O)c4c(O)c(c(/C=N/N5CCN(C)CC5)c(O)c4c3C2=O)NC(=O)/C(C)=C\C=C\[C@H](C)[C@H](O)[C@@H](C)[C@@H](O)[C@@H](C)[C@H](OC(C)=O)[C@@H]1C [RIFAMPIN] |  |  |  |  | 40 (≈ 48.6 µM) |  |  |  |  |  |  |  |  |
| O=C(O)c1cn(C2CC2)c2cc(N3CCNCC3)c(F)cc2c1=O [CIPROFLOXACIN] |  |  |  | 30 |  | ≤ 1 | 33 | ≤ 1 | 31 |  | ≤ 1 | 32 | ≤ 1 |
